Results on three molecules are retold here after patent US20160213742A1, “COMPOSITIONS AND METHODS FOR THE TREATMENT OF FUNGAL INFECTIONS” (priority 2013, published 2016).

Values after ≈ are worked out from the molar mass of the structure shown. “Also recorded” adds a separate entry of the source. Some results are limits rather than exact numbers.

Common to all, as to format: cell-based
One assay concerns A. fumigatus MYA-3626. Put plainly: MEC assay (Example 31). The settings on record: RPMI pH 7.0, 35° C., 24-48 hr. The essentials:
(§1)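 Yeast colonies were suspended to a 0.5 McFarland standard and diluted 1:100, while Aspergillus suspensions were diluted to ~0.2-2.5×10^4 CFU/mL final. Organisms were then exposed to 2-fold compound series in RPMI, pH 7.0, at 35° C. for approximately 24-48 hr before visual MIC/MEC reading.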

The test system of another assay is A. fumigatus ATCC 13073. Put plainly: MEC assay (Example 31). The settings on record: RPMI pH 7.0, 35° C., 24-48 hr. The essentials:
as §1

The test system of a further assay is A. flavus MX 5948. Put plainly: MEC assay (Example 31). The settings on record: RPMI pH 7.0, 35° C., 24-48 hr. The essentials:
as §1

The test system of the next assay is A. fumigatus MX 5944. In words: MEC assay (Example 31). As to conditions: RPMI pH 7.0, 35° C., 24-48 hr. The method, boiled down: as §1
A further assay relates to A. fumigatus MYA-4609. Put plainly: MEC assay (Example 31). The settings on record: RPMI pH 7.0, 35° C., 24-48 hr. The essentials:
as §1

Assay [1] concerns Neutrophils purified from human peripheral blood. In words: Human Neutrophil Transwell Migration Assay. As to conditions: 37° C., 45 minutes, % of the maximum migration possible. The text has this: Neutrophils were purified from human peripheral blood utilizing PolymorphPrep. Red blood cells were lysed with a lysis buffer and the cells were washed, counted and resuspended in assay buffer. Neutrophils (approximately 50,000 to 100,000 in number) were placed over 5-micon pore sized transwell plates in 24-well format with test compounds in the bottom chamber of each well. A negative control of media alone in the bottom chamber was set up in triplicate. A positive control where the neutrophils were added directly to the bottom well was set up in triplicate.
The plates were incubated at 37° C. for 45 minutes to allow for migration. After this time, migration was confirmed visually and then an aliquot (⅙^th of total cells) from each well was taken for ATP detection via luminescence with ATPlite (PerkinElmer) to quantify the number of migrated cells. The averaged reading for random migration detected in the negative control was subtracted from all readings to obtain the corrected migration number. These numbers were then divided by the averaged reading from the positive control to get the % Neutrophil Migration of the maximum migration possible.

In the next assay the test system is C. albicans ATCC 90028. In words: microbe, parasite or virus in culture. The settings on record: ATCC 90028, pH 7. The method, boiled down:
as §1

In a further assay the test system is C. krusei ATCC 14243. Put plainly: microbe, parasite or virus in culture. As to conditions: ATCC 14243, pH 7. The method, boiled down:
as §1

Assay [2] relates to C. parapsilosis ATCC 22019. Put plainly: microbe, parasite or virus in culture. The settings on record: ATCC 22019, pH 7. The method, boiled down: as §1
The test system of a further assay is C. glabrata ATCC 90030. Put plainly: microbe, parasite or virus in culture. The settings on record: ATCC 90030, pH 7. The method, boiled down:
as §1

For another assay, the system named is human neutrophils. In words: Microfluidic Neutrophil Chemotaxis assay. As to conditions: for neutrophil (NF) migration counts (FIG. 1): 4 hour timepoint, relative to A. fumigatus alone. An excerpt:
Two layers of photoresist (SU8; […] The wafer with patterned photoresist was used as a mold to produce polydimethylsiloxane (PDMS) (Fisher Scientific) devices, which were then bonded to the base of glass-bottom 12- or 24-well plates, using an oxygen plasma machine (Nordson-March). De-identified, fresh human blood samples from healthy volunteers, aged 18 years and older, who were not receiving immunosuppressants, were purchased from Research Blood Components, LLC. Peripheral blood was drawn in tubes containing a final concentration of 5 mM EDTA (Vacutainer; Becton Dickinson) and processed within 2 h of blood collection. Using a sterile technique, neutrophils were isolated from whole blood using HetaSep followed by the EasySep Human Neutrophil Enrichment Kit (STEMCELL Technologies) following the manufacturer's protocol. The purity of neutrophils was assessed to be >98% using the Sysmex KX-21N Hematology Analyzer (Sysmex America, Inc.). White blood cells were isolated using Hetasep followed by a 5 min spin down and wash with 1×PBS. White blood cells were stained with Hoechst (32.4 μM) (Sigma) following the manufacture's protocols. The final aliquots of white blood cells were resuspended in RPMI plus 10% fetal bovine serum (FBS−stock 50 mL FBS/450 mL RPMI) (Sigma-Aldrich) at a concentration of 20,000 cells/2 μL and kept at 37° C. Cells were then immediately introduced into the microfluidic device for the chemotaxis and Aspergillus fumigatus killing assay. All experiments were repeated at least three times with neutrophils or white blood cells from three different healthy donors. Immediately after bonding to the well plate, donut-shaped devices were filled with Aspergillus fumigatus conidia at a concentration of 10^6 cells/mL with or without either Compound 1 or Compound 11 [10 nM], caspofungin acetate [10 nM] and/or a solution of the chemoattractant N-formyl-methionyl-leucyl-phenylalanine (fMLP) [100 nM](Sigma-Aldrich, St. Louis, Mo.). The device was then placed in a vacuum for 15 min. The solution filled all of the FCCs as the air was displaced. The devices were then vigorously washed five times with 1×PBS to remove any residual Aspergillus fumigatus conidia, drug or chemoattractant that was outside of the FCCs. The device was then submerged in 0.5 mL of cell media. Neutrophils or white blood cells (20,000 cells/2 μL) were then pipetted into the cell loading chamber (CLC) using a gel-loading pipette tip. […] Image analysis of cell migration counts and fungi growth was analyzed by hand using Image J software. Neutrophil counts per chamber were counted every 15 min for the first 2 hours of the experiment and then every hour for the remaining 16 hours. Percentage of conidia that converted to hyphal growth was measured by counting conidia loaded per chamber before neutrophils or WBCs were loaded into the chamber and counting numbers of these conidia that grew hyphae by 18 hours. Fungal growth velocity was calculated using Image J. The 16 chambers in each device (n=3) were analyzed for at least three different healthy donors.

Assay [3] relates to Aspergillus fumigatus strain AF293. In words: Microfluidic Aspergillus fumigatus Killing Assay with human neutrophils. An excerpt:
Microfluidic devices used to measure leukocyte migration in response to Aspergillus fumigatus with or without drug (Compound 1 or Compound 11), antifungal control (caspofungin acetate) and/or chemoattractant (fMLP) were manufactured using known microfabrication techniques. Two layers of photoresist (SU8; Microchem), the first one 10 μm thin (corresponding to the migration channels) and the second one 70 μm thick, corresponding to the focal chemotactic chambers (FCCs) were patterned on one silicon wafer sequentially using two photolithographic masks and processing cycles according to the instructions from the manufacturer. The wafer with patterned photoresist was used as a mold to produce polydimethylsiloxane (PDMS) (Fisher Scientific) devices, which were then bonded to the base of glass-bottom 12- or 24-well plates, using an oxygen plasma machine (Nordson-March).
Aspergillus fumigatus strain AF293 expressing either cytosolic red fluorescent protein (RFP) or green fluorescent protein (GFP) was grown on Sabouraud dextrose agar plates supplemented with 100 μg/mL ampicillin at 30° C. for 3-4 days. Conidia were harvested by gentle scraping followed by washing in ice-cold phosphate buffered saline (PBS) three times. Conidia were immediately used or stored at 4° C. for use within one week.
De-identified, fresh human blood samples from healthy volunteers, aged 18 years and older, who were not receiving immunosuppressants, were purchased from Research Blood Components, LLC. Peripheral blood was drawn in tubes containing a final concentration of 5 mM EDTA (Vacutainer; Becton Dickinson) and processed within 2 h of blood collection. Using a sterile technique, neutrophils were isolated from whole blood using HetaSep followed by the EasySep Human Neutrophil Enrichment Kit ([…] Technologies) following the manufacturer's protocol. The purity of neutrophils was assessed to be >98% using the Sysmex KX-21N Hematology Analyzer (Sysmex America, Inc.). White blood cells were isolated using Hetasep followed by a 5 min spin down and wash with 1×PBS. White blood cells were stained with Hoechst (32.4 μM) (Sigma) following the manufacture's protocols. The final aliquots of white blood cells were resuspended in RPMI plus 10% fetal bovine serum (FBS−stock 50 mL FBS/450 mL RPMI) (Sigma-Aldrich) at a concentration of 20,000 cells/2 μL and kept at 37° C. Cells were then immediately introduced into the microfluidic device for the chemotaxis and Aspergillus fumigatus killing assay. All experiments were repeated at least three times with neutrophils or white blood cells from three different healthy donors.
Immediately after bonding to the well plate, donut-shaped devices were filled with Aspergillus fumigatus conidia at a concentration of 10^6 cells/mL with or without either Compound 1 or Compound 11 [10 nM], caspofungin acetate [10 nM] and/or a solution of the chemoattractant N-formyl-methionyl-leucyl-phenylalanine (fMLP) [100 nM](Sigma-Aldrich, St. Louis, Mo.). The device was then placed in a vacuum for 15 min. The solution filled all of the FCCs as the air was displaced. The devices were then vigorously washed five times with 1×PBS to remove any residual Aspergillus fumigatus conidia, drug or chemoattractant that was outside of the FCCs. The device was then submerged in 0.5 mL of cell media. Neutrophils or white blood cells (20,000 cells/2 μL) were then pipetted into the cell loading chamber (CLC) using a gel-loading pipette tip. Neutrophil migration into the migration channel toward the FCC started immediately and was recorded using time-lapse imaging on a fully automated Nikon TiE microscope (10× magnification) with biochamber heated to 37° C. with 5% carbon dioxide gas. Image analysis of cell migration counts and fungi growth was analyzed by hand using Image J software.
Image analysis of cell migration counts and fungi growth was analyzed by hand using Image J software.

`CC[C@H](C)C[C@H](C)CCCCCCCCC(=O)N[C@H]1C[C@@H](O)[C@@H](NCCN)NC(=O)[C@@H]2[C@@H](O)CCN2C(=O)[C@H]([C@H](O)CCNC(=O)[C@H](CCSC)NC(=O)[C@H](CC(C)C)NC(=O)[C@H](CCSC)NC=O)NC(=O)[C@H]([C@H](O)[C@@H](O)c2ccc(O)cc2)NC(=O)[C@@H]2C[C@@H](O)CN2C(=O)[C@H]([C@@H](C)O)NC1=O` [Compound 28]: the MEC in the assay on A. fumigatus MYA-3626 was 0.25 µg/mL; in the assay on A. fumigatus ATCC 13073, 0.25 µg/mL; in the assay with A. flavus MX 5948, 0.12 µg/mL; with A. fumigatus MX 5944, 0.25 µg/mL; in the assay with A. fumigatus MYA-4609, 0.25 µg/mL. For the same molecule, the “% Neutrophil Migration” value in [1] (conc 0.001 μg/mL) was −0.4%; in assay [1] (conc 0.01 μg/mL) it was 2.2%; in assay [1] (conc 0.1 μg/mL), 43.4%; in assay [1] (conc 1 μg/mL), −0.2%; in assay [1] (conc 10 μg/mL), −7.4%. The MIC against C. albicans ATCC 90028 is 1 µg/mL (≈ 0.668 µM); in the assay on C. krusei ATCC 14243, 8 µg/mL (≈ 5.34 µM); in assay [2], 8 µg/mL (≈ 5.34 µM); in the assay with C. glabrata ATCC 90030 it was 2 µg/mL (≈ 1.34 µM).

As for `CC[C@H](C)C[C@H](C)CCCCCCCCC(=O)N[C@H]1C[C@@H](O)[C@@H](NCCN)NC(=O)[C@@H]2[C@@H](O)CCN2C(=O)[C@H]([C@H](O)CCNC(=O)[C@H](CO)NC(=O)[C@H](CC(C)C)NC(=O)[C@H](CCSC)NC=O)NC(=O)[C@H]([C@H](O)[C@@H](O)c2ccc(O)cc2)NC(=O)[C@@H]2C[C@@H](O)CN2C(=O)[C@H]([C@@H](C)O)NC1=O` [Compound 29], the MEC with A. fumigatus MYA-3626 was 0.25 µg/mL; in the assay with A. fumigatus ATCC 13073, 0.5 µg/mL; in the assay with A. flavus MX 5948, 0.25 µg/mL; in the assay with A. fumigatus MX 5944 it was 0.25 µg/mL; with A. fumigatus MYA-4609 it was 0.25 µg/mL. The “% Neutrophil Migration” value is on record as 1.4% in assay [1] (conc 0.001 μg/mL); 0.1% in [1] (conc 0.01 μg/mL); 2.2% in [1] (conc 0.1 μg/mL); 11.0% in assay [1] (conc 1 μg/mL); 8.4% in assay [1] (conc 10 μg/mL). Moreover, the MIC in the assay on C. albicans ATCC 90028 was 2 µg/mL (≈ 1.38 µM); with C. krusei ATCC 14243, 32 µg/mL (≈ 22 µM); in [2] it was above 32 µg/mL; against C. glabrata ATCC 90030 it was 8 µg/mL (≈ 5.51 µM).

As for `CSCC[C@H](NC=O)C(=O)N[C@@H](CC(C)C)C(=O)N[C@@H](Cc1ccccc1)C(=O)O` [fMLP, N-formyl-methionyl-leucyl-phenylalanine, reference compound], the “neutrophil (NF) migration counts (FIG. 1)” value with human neutrophils (100 nM fMLP alone, no A. fumigatus) is listed as “increased NF migration”; in the assay on human neutrophils (in the presence of Aspergillus fumigatus, Compound 1, Compound 11, caspofungin acetate 10 nM, fMLP 100 nM), “increased NF migration”. Besides, in the assay on human neutrophils (with A. fumigatus, three healthy blood donors, t=0, 8, and 16 hours), the “timecourse of neutrophil (PMNs) migration in FCCs (FIG. 4)” value is on record as “migration of PMNs”. In addition, the “timecourse of A. fumigatus (Af) growth in FCCs (FIG. 4)” value in assay [3] (in presence of PMNs, three healthy blood donors, t=0, 8, and 16 hours) is given as “inhibition of growth of Af”. Further, the “percent hyphal growth compared to remaining conidia (FIG. 2)” value in [3] (with added neutrophils (NFs), Compound 1, Compound 11, caspofungin acetate 10 nM, fMLP 100 nM, hyphae by 18 hours) is “inhibition of Aspergillus fumigatus hyphal growth; also recorded: able to suppress hyphal growth”.
